Reference: patent US20150079000A1, “Labelled Quinoxaline Derivatives as Multimodal Radiopharmaceuticals and Their Precursors” (INSTITUT NATIONAL DE LA SANTET DE LA RECHERCHE MEDICALE, priority 2012, published 2015)

Tests used:
[1] = octanol/water (PBS buffer) partition coefficient (log D); format: physicochemical
[2] = radiochemical stability of the radiotracer after preparation; format: physicochemical
[3] = tested on: B16BL6 tumour; test: PET imaging in B16BL6 tumour bearing mice; format: in vivo, C57BL/6J mice; conditions: 1 h p.i., day-15
Description: All our studies were performed in accordance with French and European Economic Community (86-609, EEC) guidelines for care of laboratory animals. Protocols were performed under the authorization of the French Direction des Services Veterinaires (authorization no. CE 86-12). Male C57BL/6J mice were originating from Charles River laboratories and maintained at 21° C. with a 12 h/12 h light/dark cycle, fed with a breeding diet (diet A04 from Safe, Villemoisson, France) and received water ad libitum. For transplantation B16BL6 cell suspension were grown in a monolayer culture to confluence, after which cells were trypsinized, washed with phosphate buffer saline (PBS) and they were resuspended in PBS. Mice were anesthetized by isoflurane (4% for induction and 2±0.5% for maintaining in oxygen flux) inhalation. The primary tumour model was induced by subcutaneous injection of 3×10^5 melanoma B16B16 cells in 0.1 mL on the right shoulder of mice.
Whole-body PET scans were acquired 1 h after bolus injection of […] of the appropriate [^18F]-compound in a volume of 0.15 ml via the tail vein. Mice were anesthetized by intraperitoneal (i.p.) administration (200 μL/mouse) of a ketamine-xylazine mixture in saline: ketamine (100 mg/kg, Imalgene™, Rhône Mérieux, Lyon, France) and xylazine (10 mg/kg, Rompun™, Bayer, France) before radiotracer injection and imaged by using a small-animal PET device, eXplore Vista microPET instrument (GE Healthcare). PET images were acquired by using static mode during 20 min. The acquired data were reconstructed using the 2-Dimensional ordered-subsets expectation maximization (OSEM) algorithm and corrected from decay, scatter and randoms. No corrections were applied for partial volume or attenuation.
Regional tracer uptake was quantified by standard region-of-interest (ROI) analysis with eXplore Vista software package. A manual 2D-ROI was drawn around the tumour in each slice where tumour was visible, and on several subsequent coronal planes containing muscle tissue at the forelimb. Results are expressed by percentage of injected dose per gram of tissue (% ID/g).
PET imaging was performed 1 h post injection of tracers in B16BL6 tumour bearing mice at day-15 after tumours cell inoculation.

[4] = [18F](1) stability study on ex vivo extracts; format: in vivo, mice
Description: Six primary melanoma bearing mice were intravenously injected with 18 MBq of [^18F](1) and sacrificed 30 min, 1 h and 2 h after tracer injection. To determine the metabolic stability of [^18F](1), blood, tumour, eyes, liver and urine samples were collected. Blood was immediately centrifuged for 5 min at 3,000 rpm and plasma directly investigated by analytical HPLC. Other organs were pooled and homogenized using GentleMACS™ dissociator (Miltenyi Biotec, Bergisch Gladbach, Germany), suspended in 5 mL of methanol/NH4OH 99.8:0.2 and centrifuged for 5 min at 3,000 rpm. The extraction efficiency was determined by measuring the radioactivity of supernatants and precipitates. Supernatants were passed through a 0.22 μm Millipore filter and then concentrated to a volume between 200 and 500 μL before injection (duplicate) onto the analytical HPLC (Waters Symmetry® C18; Gradient elution: 60% to 90% MeOH (0.4% NH4OH) in water (0.4% NH4OH) (10 min), then 60% for 7 min).

[5] = tested on: A375 tumours; test: PET imaging in A375 tumour bearing mice; format: in vivo, Swiss nudes mice; conditions: 1 h p.i.
Description: Protocols were performed under the authorization of the French Direction des Services Veterinaires (authorization no. CE 86-12). Female Swiss nudes mice (6 weeks old) were originating from Charles River laboratories and maintained at 21° C. with a 12 h/12 h light/dark cycle, fed with a breeding diet (diet A04 from Safe, Villemoisson, France) and received water ad libitum. For transplantation cell suspension were grown in a monolayer culture to confluence, after which cells were trypsinized, washed with phosphate buffer saline (PBS) and they were resuspended in PBS. Mice were anesthetized by isoflurane (4% for induction and 2±0.5% for maintaining in oxygen flux) inhalation. The primary tumour model was induced by subcutaneous injection of 3×10^6 melanoma SKMEL-3 (pigmented cell line) or A375 (non-pigmented cell ligne) cells in 0.1 mL on the right shoulder of mice.
Whole-body PET scans were acquired 1 h after bolus injection of 10 MBq of [^18F](1) in a volume of 0.15 ml via the tail vein. […]
Regional tracer uptake was quantified by standard region-of-interest (ROI) analysis with eXplore Vista software package. […]

## CCN(CCNC(=O)c1cnc2cc(I)ccc2n1)CCOCCOCCOCC[18F] [[^18F](1)]
[1]
  octanol/water (PBS buffer) partition coefficient (log D): 1.52±0.03
[2]
  radiochemically stable at room temperature after preparation: at least 24 h
[3]
  eyes uptake: 10.50±2.95 % ID/g
  intestine uptake: 4.07±1.39 % ID/g
  muscles activity: 1.37±0.37 % ID/g
  pigmented spleen uptake: 7.38±0.73 % ID/g
  tumour uptake: 14.33±2.11 % ID/g
  tumour/muscle ratio: 11.04±2.87
[4]; Black, Blood, 30 min
  % unchanged [18F](1): 15.2%
[4]; Black, Eyes, 1 h
  % unchanged [18F](1): 100%
[4]; Black, Eyes, 2 h
  % unchanged [18F](1): >99%
[4]; Black, Liver, 1 h
  % unchanged [18F](1): <10%
[4]; Black, Liver, 2 h
  % unchanged [18F](1): <20%
[4]; Black, Tumour, 1 h
  % unchanged [18F](1): >99%
[4]; Black, Tumour, 2 h
  % unchanged [18F](1): 100%
[4]; Black, Urine, 1 h
  % unchanged [18F](1): 0.1%
[4]; Black, Urine, 2 h
  % unchanged [18F](1): 0.0%
[4]; Nude, Blood, 30 min
  % unchanged [18F](1): 3.0%
[4]; Nude, Liver, 2 h
  % unchanged [18F](1): <10%
[4]; Nude, Tumour, 1 h
  % unchanged [18F](1): >99%
[4]; Nude, Tumour, 2 h
  % unchanged [18F](1): >99%
[4]; Nude, Urine, 1 h
  % unchanged [18F](1): 2.7%
[4]; Nude, Urine, 2 h
  % unchanged [18F](1): 1.4%
[5]; A375 tumour bearing mice
  muscles activity: 1.14±0.28 % ID/g
[5]; day-23, unpigmented A375 tumours
  tumour uptake: 1.87±0.34 % ID/g
